Source: article PMC10537105, “Derivatives Incorporating Acridine, Pyrrole, and Thiazolidine Rings as Promising Antitumor Agents” (Molecules, 2023)

Columns and labels:
[1] = tested on: HCT-116; test: MTT assay, HCT-116 cells; assay type: cell-based, human; conditions: Homo sapiens, HCT-116; MTT, 72 h of incubation; read-out: IC50 values ± SD, HCT-116
Description: (§1) The impact of acridine spiro derivatives 6–10 (Figure 13) on the metabolic activity of various tumor cell lines HCT-116 (human colorectal carcinoma), Jurkat (human leukemia cells), HeLa (human cervical adenocarcinoma), MDA-MB-231, and MCF-7 (human breast adenocarcinoma), and normal cell lines COS-7 (monkey kidney cells) and BJ-5ta (skin fibroblasts) was investigated using the MTT assay. This assay measures the conversion of yellow 3-(4,5-dimethylthiazol-2-yl)-2,5-diphenyltetrazolium bromide (MTT) to insoluble purple formazan by metabolically active cells. The antiproliferative activities of the tested compounds were determined based on the results from the MTT assay, and the inhibitory concentration values (IC50) are presented in Table 5.
(§2) The human cancer cell lines employed in this study were sourced from reputable institutions, including the American Type Culture Collection (ATCC; Manassas, VA, USA) and the European Collection of Authenticated Cell Cultures (ECACC, Salisbury, UK). Specifically, HeLa (93021013, human cervical adenocarcinoma), HCT116 (CCL-247TM, human colorectal carcinoma), and Jurkat (88042803, human leukemic T-cell lymphoma) were cultured in RPMI 1640 medium (Biosera, Kansas City, MO, USA). In contrast, MCF-7 (HTB-22TM, human breast adenocarcinoma, ER+), MDA-MB-231 (HTB-26TM, human breast adenocarcinoma, ER−), and COS-7 (CRL-1651TM, kidney fibroblasts) were nurtured in high-glucose Dulbecco’s Modified Eagle Medium (DMEM) supplemented with sodium pyruvate (Biosera). Furthermore, BJ-5ta (CRL-4001TM, human dermal fibroblasts) was cultured in a composite medium of high-glucose DMEM and M199 (4:1) (Biosera), supplemented with Hygromycin B (0.01 mg/mL; Merck, Darmstadt, Germany). All culture media were enriched with a 10% fetal bovine serum (FBS; Gibco, Thermo Scientific, Rockford, IL, USA) and an antibiotic/antimycotic solution (Merck) to ensure optimal growth conditions. The cells were meticulously maintained within a humidified environment containing 5% CO2 at 37 °C. Regular screenings for mycoplasma contamination were conducted using Hoechst 33342 staining (Merck), confirming the integrity of the cell lines.
(§3) To assess the antiproliferative impact of the synthesized compounds 6–10, their half-maximal inhibitory concentration (IC50) and the MTT colorimetric assay were employed. MDA-MB-231 and MCF-7 cells were seeded into 96-well microplates (SARSTEDT, Nümbrecht, Germany) at a density of 5 × 10^3 cells per well. After 24 h of cell seeding, various concentrations (100, 50, and 10 µmol/L) of acridine derivatives 6–10 were introduced, alongside cisplatin (utilized as a reference) at concentrations of 5, 10, 20, 50, and 100 µmol/L. Subsequent to 24, 48, and 72 h of treatment, the cells in each well underwent incubation with MTT (5 mg/mL, Sigma-Aldrich Chemie, Steinheim, Germany) for 4 h at 37 °C in the dark. During this period, mitochondrial oxidoreductases metabolized MTT, forming insoluble formazan. Following this, 100 µL of SDS (10% […]) was added to dissolve the formazan crystals, and the cells were incubated for an additional 12 h. Absorbance at 540 nm was measured using the automated Cytation™ 3 Cell Imaging Multi-Mode Reader (Biotek, Winooski, VT, USA). Each test was performed in triplicate, and three independent experiments were conducted to ensure precision and reliability.

[2] = tested on: COS-7; test: MTT assay, COS-7 normal cells; assay type: cell-based, monkey; conditions: Primates, COS-7, 72 h of incubation, normal cell line, read-out: IC50 values ± SD, COS-7
Description: as §1, §2, §3

[3] = tested on: MDA-MB-231; test: MTT assay, MDA-MB-231 cells; assay type: cell-based, human; conditions: Homo sapiens, MDA-MB-231, 72 h of incubation, read-out: IC50 values ± SD, MDA-MB-231
Description: as §1, §2, §3

[4] = tested on: HeLa; test: MTT assay, HeLa cells; assay type: cell-based, human; conditions: Homo sapiens, HeLa, 72 h of incubation, read-out: IC50 values ± SD, HeLa
Description: as §1, §2, §3

[5] = tested on: BJ-5ta; test: MTT assay, BJ-5ta normal fibroblasts; assay type: cell-based, human; conditions: Homo sapiens, Fibroblast, 72 h of incubation, normal cell line, read-out: IC50 values ± SD, BJ-5ta
Description: as §1, §2, §3

[6] = tested on: MCF-7; test: MTT assay, MCF-7 cells; assay type: cell-based, human; conditions: Homo sapiens, MCF7, 72 h of incubation, read-out: IC50 values ± SD, MCF-7
Description: as §1, §2, §3

[7] = tested on: Jurkat; test: MTT assay, Jurkat cells; assay type: cell-based, human; conditions: Homo sapiens, Jurkat; MTT, 72 h of incubation; read-out: IC50 values ± SD, Jurkat
Description: as §1, §2, §3

## CCCC1S/C(=N\N2C(=O)C(C#N)=CC23c2ccccc2Nc2ccccc23)N(c2ccc(OC)cc2)C1=O (centres unmarked) [10b, 1′-{[(2Z)-3-(4-Methoxyphenyl)-4-oxo-5-propyl-1,3-thiazolidin-2-ylidene]amino}-5′-oxo-1′,5′-dihydro-10H-spiro[acridine-9,2′-pyrrole]-4′-carbonitrile]
[1]
  IC50: > 100 µM
other
  melting point: 247 to 250 °C (dec.)
[2]
  IC50: > 100 µM
[3]
  IC50: > 100 µM
[4]
  IC50: > 100 µM
[5]
  IC50: > 100 µM
[6]
  IC50: > 100 µM
[7]
  IC50: > 100 µM

## N#CC1=CC2(c3ccccc3Nc3ccccc32)N(NC(=S)Nc2ccc(F)cc2)C1=O [6d, 3-{4′-Cyano-5′-oxo-1′,5′-dihydro-10H-spiro[acridine-9,2′-pyrrol]-1′-yl}-1-(4-fluorophenyl)thiourea]
[1]
  IC50: 18.9 ± 4.71 µM
other
  melting point: 197 to 199 °C (dec.)
[2]
  IC50: > 100 µM
[3]
  IC50: > 100 µM
[4]
  IC50: > 100 µM
[5]
  IC50: > 100 µM
[6]
  IC50: > 100 µM
[7]
  IC50: 31.8 ± 5.65 µM

## CCOC(=O)/C=C1\S/C(=N\N2C(=O)C(C#N)=CC23c2ccccc2Nc2ccccc23)N(c2ccc(F)cc2)C1=O [8d, Ethyl 2-[(2Z,5Z)-2-({4′-cyano-5′-oxo-1′,5′-dihydro-10H-spiro[acridine-9,2′-pyrrol]-1′-yl}imino)-3-(4-fluorophenyl)-4-oxo-1,3-thiazolidin-5-ylidene]acetate]
[1]
  IC50: 5.46 ± 0.02 µM
other
  melting point: 269 to 272 °C (dec.)
[2]
  IC50: 9.45 ± 0.24 µM
[3]
  IC50: 7.85 ± 0.97 µM
[4]
  IC50: 5.97 ± 0.15 µM
[5]
  IC50: 7.32 ± 0.35 µM
[6]
  IC50: 8.52 ± 0.79 µM
[7]
  IC50: 5.64 ± 0.09 µM

## N#CC1=CC2(c3ccccc3Nc3ccccc32)N(/N=C2\SCC(=O)N2c2ccccc2)C1=O [7a, 5′-Oxo-1′-{[(2Z)-4-oxo-3-phenyl-1,3-thiazolidin-2-ylidene]amino}-1′,5′-dihydro-10H-spiro[acridine-9,2′-pyrrole]-4′-carbonitrile]
[1]
  IC50: 41.3 ± 2.3 µM
other
  melting point: 241 to 243 °C (dec.)
[2]
  IC50: > 100 µM
[3]
  IC50: > 100 µM
[4]
  IC50: 51.2 ± 3.32 µM
[5]
  IC50: > 100 µM
[6]
  IC50: 21.62 ± 0.1 µM
[7]
  IC50: > 100 µM

## N#CC1=CC2(c3ccccc3Nc3ccccc32)N(NC(=S)Nc2ccccc2)C1=O [6a, 3-{4′-Cyano-5′-oxo-1′,5′-dihydro-10H-spiro[acridine-9,2′-pyrrol]-1′-yl}-1-phenylthiourea]
[1]
  IC50: 14.3 ± 5.09 µM
other
  melting point: 194 to 195 °C (dec.)
[2]
  IC50: > 100 µM
[3]
  IC50: > 100 µM
[4]
  IC50: 67.2 ± 8.65 µM
[5]
  IC50: 92.2 ± 1.6 µM
[6]
  IC50: > 100 µM
[7]
  IC50: 11.6 ± 4.3 µM

## COc1cccc(N2C(=O)CS/C2=N\N2C(=O)C(C#N)=CC23c2ccccc2Nc2ccccc23)c1 [7c, 1′-{[(2Z)-3-(3-Methoxyphenyl)-4-oxo-1,3-thiazolidin-2-ylidene]amino}-5′-oxo-1′,5′-dihydro-10H-spiro[acridine-9,2′-pyrrole]-4′-carbonitrile]
[1]
  IC50: 24.4 ± 1.31 µM
other
  melting point: 217 to 220 °C (dec.)
[2]
  IC50: 55.2 ± 5.38 µM
[3]
  IC50: 39.7 ± 2.4 µM
[4]
  IC50: 54 ± 0.72 µM
[5]
  IC50: 38 ± 1.44 µM
[6]
  IC50: 45.14 ± 0.04 µM
[7]
  IC50: 22.1 ± 0.43 µM

## CCCC1S/C(=N\N2C(=O)C(C#N)=CC23c2ccccc2Nc2ccccc23)N(c2ccc(F)cc2)C1=O (centres unmarked) [10d, 1′-{[(2Z)-3-(4-Fluorophenyl)-4-oxo-5-propyl-1,3-thiazolidin-2-ylidene]amino}-5′-oxo-1′,5′-dihydro-10H-spiro[acridine-9,2′-pyrrole]-4′-carbonitrile]
[1]
  IC50: > 100 µM
other
  melting point: 230 to 232 °C (dec.)
[2]
  IC50: > 100 µM
[3]
  IC50: > 100 µM
[4]
  IC50: > 100 µM
[5]
  IC50: > 100 µM
[6]
  IC50: > 100 µM
[7]
  IC50: > 100 µM
